The results in this text go back to ChEMBL document CHEMBL1140238, “Synthesis of selective SRPK-1 inhibitors: novel tricyclic quinoxaline derivatives” (Bioorg Med Chem Lett, 2005).

Structures are written as SMILES.

Data set [1] can be described thus: In vitro percent inhibition of Cyclin-dependent kinase 2-cyclin A at 10 uM concentration of compound dissolved in 100% DMSO using 5''-[gamma-33P]-triphosphate.
The target of data set [2] is Ribosomal protein S6 kinase (P70S6K) (Homo sapiens) (UniProt Q9UBS0+P23443). Kind of data set: In vitro percent inhibition of Ribosomal protein S6 kinase at 10 uM concentration of compound dissolved in 100% DMSO using 5''-[gamma-33P]-triphosphate. The class given is protein-complex assay.
Data set [3] concerns the target Glycogen synthase kinase-3 beta (Homo sapiens) (UniProt P49841). The experiment in a line: In vitro percent inhibition of Glycogen synthase kinase 3 beta at 10 uM concentration of compound dissolved in 100% DMSO using 5''-[gamma-33P]-triphosphate.
Data set [4] concerns the target RAF proto-oncogene serine/threonine-protein kinase (Homo sapiens) (UniProt P04049). The experiment in a line: In vitro percent inhibition of RAF proto-oncogene serine/threonine-protein kinase at 10 uM concentration of compound dissolved in 100% DMSO using 5''-[gamma-33P]-triphosphate.
For data set [5], the target named is Platelet-derived growth factor receptor beta (Homo sapiens) (UniProt P09619). Kind of data set: In vitro percent inhibition of Platelet-derived growth factor receptor, beta polypeptide at 10 uM concentration of compound dissolved in 100% DMSO using 5''-[gamma-33P]-triphosphate.
Data set [6] has as its target Mast/stem cell growth factor receptor Kit (Homo sapiens) (UniProt P10721). The experiment in a line: In vitro percent inhibition of v-kit Hardy-Zuckerman 4 feline sarcoma viral oncogene homolog at 10 uM concentration of compound dissolved in 100% DMSO using 5''-[gamma-33P]-triphosphate.
Data set [7] has as its target Hepatocyte growth factor receptor (Homo sapiens) (UniProt P08581). Kind of data set: In vitro percent inhibition of Met proto-oncogene tyrosine kinase at 10 uM concentration of compound dissolved in 100% DMSO using 5''-[gamma-33P]-triphosphate.
Data set [8] has as its target Mitogen-activated protein kinase 3 (Homo sapiens) (UniProt P27361). Kind of data set: In vitro percent inhibition of Mitogen-activated protein kinase 3 at 10 uM concentration of compound dissolved in 100% DMSO using 5''-[gamma-33P]-triphosphate.
The target in data set [9] is Tyrosine-protein kinase Lck (Homo sapiens) (UniProt P06239). The experiment in a line: In vitro percent inhibition of p56 Lck tyrosine kinase at 10 uM concentration of compound dissolved in 100% DMSO using 5''-[gamma-33P]-triphosphate.
Data set [10] deals with Rho-associated protein kinase 2 (Homo sapiens) (UniProt O75116). Kind of data set: In vitro percent inhibition of Protein kinase ROCK2 at 10 uM concentration of compound dissolved in 100% DMSO using 5''-[gamma-33P]-triphosphate.
For data set [11], the target named is Casein kinase I isoform alpha (Homo sapiens) (UniProt P48729). The experiment in a line: In vitro percent inhibition of Casein kinase 1 alpha at 10 uM concentration of compound dissolved in 100% DMSO using 5''-[gamma-33P]-triphosphate.
Data set [12] concerns the target T1, Inhibitor of nuclear factor kappa-B kinase subunit beta (Homo sapiens) (UniProt O14920).
T1 sequence (whole entry): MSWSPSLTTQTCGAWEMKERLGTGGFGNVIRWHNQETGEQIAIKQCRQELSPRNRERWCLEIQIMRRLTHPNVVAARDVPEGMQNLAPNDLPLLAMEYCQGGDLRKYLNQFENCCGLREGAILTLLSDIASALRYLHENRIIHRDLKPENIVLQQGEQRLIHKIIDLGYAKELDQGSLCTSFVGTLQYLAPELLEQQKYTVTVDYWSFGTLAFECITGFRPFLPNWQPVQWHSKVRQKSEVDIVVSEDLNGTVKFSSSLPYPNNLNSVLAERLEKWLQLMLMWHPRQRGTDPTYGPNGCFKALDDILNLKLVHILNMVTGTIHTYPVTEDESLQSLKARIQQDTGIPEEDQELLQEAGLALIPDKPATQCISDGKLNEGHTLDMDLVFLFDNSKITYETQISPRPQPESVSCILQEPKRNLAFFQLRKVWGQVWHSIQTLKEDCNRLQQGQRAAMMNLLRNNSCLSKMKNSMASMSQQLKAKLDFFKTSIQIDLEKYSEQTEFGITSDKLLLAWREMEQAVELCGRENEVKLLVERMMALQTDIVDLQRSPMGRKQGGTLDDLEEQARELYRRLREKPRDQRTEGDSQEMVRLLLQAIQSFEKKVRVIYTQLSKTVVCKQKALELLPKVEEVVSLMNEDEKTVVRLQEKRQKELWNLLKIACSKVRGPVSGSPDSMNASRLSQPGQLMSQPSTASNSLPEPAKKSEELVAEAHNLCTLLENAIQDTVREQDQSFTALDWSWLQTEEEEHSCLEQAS
Kind of data set: In vitro percent inhibition of I-kappa-B-kinase beta at 10 uM concentration of compound dissolved in 100% DMSO using 5''-[gamma-33P]-triphosphate.

Data set [13] in a line: In vitro percent inhibition of Ribosomal S6 kinase 1 at 10 uM concentration of compound dissolved in 100% DMSO using 5''-[gamma-33P]-triphosphate.
The target in data set [14] is Proto-oncogene tyrosine-protein kinase Src (Homo sapiens) (UniProt P12931). The experiment in a line: In vitro percent inhibition of c-Src tyrosine kinase at 10 uM concentration of compound dissolved in 100% DMSO using 5''-[gamma-33P]-triphosphate.
Data set [15] is described as follows: Partition coefficient (logP). As to conditions: octanol/water. The class given is physicochemical.
The target in data set [16] is Epidermal growth factor receptor (Homo sapiens) (UniProt P00533). As to conditions: 10 uM.
In data set [17] the target is RAC-alpha serine/threonine-protein kinase (Homo sapiens) (UniProt P31749). Kind of data set: In vitro percent inhibition of Protein kinase B, alpha at 10 uM concentration of compound dissolved in 100% DMSO using 5''-[gamma-33P]-triphosphate.
Data set [18] has as its target T2, Tyrosine-protein kinase transforming protein Abl (Abelson murine leukemia virus) (UniProt P00521).
T2 sequence (whole entry): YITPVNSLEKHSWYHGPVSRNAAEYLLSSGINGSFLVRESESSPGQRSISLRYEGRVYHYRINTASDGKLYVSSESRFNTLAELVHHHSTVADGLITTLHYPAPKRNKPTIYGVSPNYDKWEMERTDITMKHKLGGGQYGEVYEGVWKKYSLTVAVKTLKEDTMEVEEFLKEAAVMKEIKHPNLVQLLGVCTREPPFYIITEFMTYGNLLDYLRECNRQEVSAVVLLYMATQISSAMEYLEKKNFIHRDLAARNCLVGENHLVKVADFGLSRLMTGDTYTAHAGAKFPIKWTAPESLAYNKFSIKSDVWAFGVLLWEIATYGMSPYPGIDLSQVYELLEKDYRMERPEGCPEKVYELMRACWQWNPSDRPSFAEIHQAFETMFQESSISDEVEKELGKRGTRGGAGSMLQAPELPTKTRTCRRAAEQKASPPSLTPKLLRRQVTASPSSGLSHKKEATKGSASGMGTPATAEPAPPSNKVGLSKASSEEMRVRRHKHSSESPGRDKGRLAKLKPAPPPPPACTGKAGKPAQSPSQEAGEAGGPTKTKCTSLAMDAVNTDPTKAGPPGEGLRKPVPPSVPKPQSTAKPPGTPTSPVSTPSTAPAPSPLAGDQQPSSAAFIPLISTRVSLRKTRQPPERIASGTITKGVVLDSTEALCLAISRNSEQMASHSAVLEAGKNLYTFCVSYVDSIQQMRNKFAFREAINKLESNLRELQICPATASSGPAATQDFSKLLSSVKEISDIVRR
Kind of data set: In vitro percent inhibition of v-Abl tyrosine kinase at 10 uM concentration of compound dissolved in 100% DMSO using 5''-[gamma-33P]-triphosphate.

The target in data set [19] is Mitogen-activated protein kinase 8 (Homo sapiens) (UniProt P45983). The experiment in a line: In vitro percent inhibition of c-Jun N-terminal kinase 1-alpha 1 at 10 uM concentration of compound dissolved in 100% DMSO using 5''-[gamma-33P]-triphosphate.

Sequence of Proto-oncogene tyrosine-protein kinase Src (Homo sapiens) (P12931 2-536 limits assumed): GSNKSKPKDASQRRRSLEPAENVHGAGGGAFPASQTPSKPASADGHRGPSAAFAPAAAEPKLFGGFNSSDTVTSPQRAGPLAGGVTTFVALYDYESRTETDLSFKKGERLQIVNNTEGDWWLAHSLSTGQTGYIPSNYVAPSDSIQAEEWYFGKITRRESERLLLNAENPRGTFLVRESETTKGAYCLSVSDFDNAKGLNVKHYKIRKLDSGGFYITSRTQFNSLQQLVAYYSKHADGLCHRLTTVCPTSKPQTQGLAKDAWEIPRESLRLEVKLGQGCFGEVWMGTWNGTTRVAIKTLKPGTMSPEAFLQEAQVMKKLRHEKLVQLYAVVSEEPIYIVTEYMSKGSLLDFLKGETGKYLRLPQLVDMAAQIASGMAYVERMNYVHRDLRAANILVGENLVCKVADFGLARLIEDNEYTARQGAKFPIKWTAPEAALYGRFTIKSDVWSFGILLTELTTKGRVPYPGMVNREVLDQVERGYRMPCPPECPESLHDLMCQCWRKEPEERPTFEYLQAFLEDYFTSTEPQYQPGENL
Sequence of Casein kinase I isoform alpha (Homo sapiens) (P48729 2-337 limits assumed): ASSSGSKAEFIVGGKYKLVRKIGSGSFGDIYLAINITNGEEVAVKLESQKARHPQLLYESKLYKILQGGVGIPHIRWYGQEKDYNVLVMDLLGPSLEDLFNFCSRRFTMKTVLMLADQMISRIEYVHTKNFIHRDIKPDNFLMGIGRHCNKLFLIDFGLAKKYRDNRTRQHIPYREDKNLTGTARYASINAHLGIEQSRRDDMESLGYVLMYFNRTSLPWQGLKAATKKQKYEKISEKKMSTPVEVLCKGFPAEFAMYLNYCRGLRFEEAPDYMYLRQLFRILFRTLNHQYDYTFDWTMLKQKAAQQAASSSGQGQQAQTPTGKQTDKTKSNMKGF
Sequence of RAC-alpha serine/threonine-protein kinase (Homo sapiens) (P31749 whole entry): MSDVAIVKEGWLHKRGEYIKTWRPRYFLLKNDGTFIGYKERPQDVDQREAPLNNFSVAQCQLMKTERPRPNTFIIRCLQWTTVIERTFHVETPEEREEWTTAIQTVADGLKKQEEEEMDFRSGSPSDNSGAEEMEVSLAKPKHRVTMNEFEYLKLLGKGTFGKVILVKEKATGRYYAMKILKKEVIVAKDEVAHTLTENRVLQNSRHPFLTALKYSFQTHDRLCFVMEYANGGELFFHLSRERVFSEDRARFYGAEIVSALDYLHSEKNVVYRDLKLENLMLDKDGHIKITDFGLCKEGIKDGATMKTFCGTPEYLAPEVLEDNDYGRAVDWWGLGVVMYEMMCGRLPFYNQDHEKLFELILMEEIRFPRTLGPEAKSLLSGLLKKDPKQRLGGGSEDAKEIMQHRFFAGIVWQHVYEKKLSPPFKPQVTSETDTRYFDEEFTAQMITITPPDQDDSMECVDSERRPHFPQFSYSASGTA
Sequence of RAF proto-oncogene serine/threonine-protein kinase (Homo sapiens) (P04049 whole entry): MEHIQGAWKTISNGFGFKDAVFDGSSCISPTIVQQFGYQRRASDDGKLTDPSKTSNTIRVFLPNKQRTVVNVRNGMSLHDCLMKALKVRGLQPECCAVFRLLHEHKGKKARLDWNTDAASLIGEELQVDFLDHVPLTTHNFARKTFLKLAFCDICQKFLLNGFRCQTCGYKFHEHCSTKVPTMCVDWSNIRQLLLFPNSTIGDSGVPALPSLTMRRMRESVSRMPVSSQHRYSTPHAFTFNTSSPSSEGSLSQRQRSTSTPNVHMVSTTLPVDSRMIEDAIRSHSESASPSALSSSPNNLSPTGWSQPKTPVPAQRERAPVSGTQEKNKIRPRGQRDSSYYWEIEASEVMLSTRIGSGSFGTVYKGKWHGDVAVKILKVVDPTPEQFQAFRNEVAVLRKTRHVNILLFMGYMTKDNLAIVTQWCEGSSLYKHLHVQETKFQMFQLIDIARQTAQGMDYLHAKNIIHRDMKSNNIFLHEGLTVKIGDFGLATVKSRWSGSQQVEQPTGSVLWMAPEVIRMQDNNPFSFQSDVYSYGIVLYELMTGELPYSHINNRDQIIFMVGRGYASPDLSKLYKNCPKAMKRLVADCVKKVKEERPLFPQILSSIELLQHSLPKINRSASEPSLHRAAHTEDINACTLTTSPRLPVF
Sequence of Platelet-derived growth factor receptor beta (Homo sapiens) (P09619 whole entry): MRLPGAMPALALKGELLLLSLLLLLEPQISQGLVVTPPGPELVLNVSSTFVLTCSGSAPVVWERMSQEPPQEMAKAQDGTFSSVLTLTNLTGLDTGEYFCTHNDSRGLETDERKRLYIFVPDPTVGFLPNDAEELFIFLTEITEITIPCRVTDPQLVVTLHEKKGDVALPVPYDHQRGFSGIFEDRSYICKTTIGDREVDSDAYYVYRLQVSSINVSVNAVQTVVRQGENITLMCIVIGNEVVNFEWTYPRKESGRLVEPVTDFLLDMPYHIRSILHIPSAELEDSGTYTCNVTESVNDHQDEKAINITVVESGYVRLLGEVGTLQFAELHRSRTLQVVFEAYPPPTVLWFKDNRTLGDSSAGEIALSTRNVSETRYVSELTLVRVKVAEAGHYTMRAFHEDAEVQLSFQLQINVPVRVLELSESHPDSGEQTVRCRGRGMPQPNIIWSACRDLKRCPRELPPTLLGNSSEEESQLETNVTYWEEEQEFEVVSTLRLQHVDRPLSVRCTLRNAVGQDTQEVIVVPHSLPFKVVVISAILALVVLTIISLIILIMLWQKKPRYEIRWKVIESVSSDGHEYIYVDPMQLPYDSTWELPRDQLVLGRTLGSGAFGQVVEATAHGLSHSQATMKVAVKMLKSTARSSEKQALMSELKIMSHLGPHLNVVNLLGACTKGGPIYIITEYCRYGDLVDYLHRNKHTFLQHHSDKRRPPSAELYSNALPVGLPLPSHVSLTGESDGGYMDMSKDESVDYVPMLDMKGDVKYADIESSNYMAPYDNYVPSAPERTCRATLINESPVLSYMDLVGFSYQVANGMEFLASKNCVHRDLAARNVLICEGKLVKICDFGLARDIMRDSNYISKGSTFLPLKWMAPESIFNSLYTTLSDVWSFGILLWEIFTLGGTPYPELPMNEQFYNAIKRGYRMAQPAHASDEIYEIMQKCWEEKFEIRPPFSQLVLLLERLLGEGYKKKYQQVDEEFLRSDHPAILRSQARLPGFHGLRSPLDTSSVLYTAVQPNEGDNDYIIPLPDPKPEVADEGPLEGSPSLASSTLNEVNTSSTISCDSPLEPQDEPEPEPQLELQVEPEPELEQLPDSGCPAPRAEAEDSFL
Sequence of Hepatocyte growth factor receptor (Homo sapiens) (P08581 whole entry): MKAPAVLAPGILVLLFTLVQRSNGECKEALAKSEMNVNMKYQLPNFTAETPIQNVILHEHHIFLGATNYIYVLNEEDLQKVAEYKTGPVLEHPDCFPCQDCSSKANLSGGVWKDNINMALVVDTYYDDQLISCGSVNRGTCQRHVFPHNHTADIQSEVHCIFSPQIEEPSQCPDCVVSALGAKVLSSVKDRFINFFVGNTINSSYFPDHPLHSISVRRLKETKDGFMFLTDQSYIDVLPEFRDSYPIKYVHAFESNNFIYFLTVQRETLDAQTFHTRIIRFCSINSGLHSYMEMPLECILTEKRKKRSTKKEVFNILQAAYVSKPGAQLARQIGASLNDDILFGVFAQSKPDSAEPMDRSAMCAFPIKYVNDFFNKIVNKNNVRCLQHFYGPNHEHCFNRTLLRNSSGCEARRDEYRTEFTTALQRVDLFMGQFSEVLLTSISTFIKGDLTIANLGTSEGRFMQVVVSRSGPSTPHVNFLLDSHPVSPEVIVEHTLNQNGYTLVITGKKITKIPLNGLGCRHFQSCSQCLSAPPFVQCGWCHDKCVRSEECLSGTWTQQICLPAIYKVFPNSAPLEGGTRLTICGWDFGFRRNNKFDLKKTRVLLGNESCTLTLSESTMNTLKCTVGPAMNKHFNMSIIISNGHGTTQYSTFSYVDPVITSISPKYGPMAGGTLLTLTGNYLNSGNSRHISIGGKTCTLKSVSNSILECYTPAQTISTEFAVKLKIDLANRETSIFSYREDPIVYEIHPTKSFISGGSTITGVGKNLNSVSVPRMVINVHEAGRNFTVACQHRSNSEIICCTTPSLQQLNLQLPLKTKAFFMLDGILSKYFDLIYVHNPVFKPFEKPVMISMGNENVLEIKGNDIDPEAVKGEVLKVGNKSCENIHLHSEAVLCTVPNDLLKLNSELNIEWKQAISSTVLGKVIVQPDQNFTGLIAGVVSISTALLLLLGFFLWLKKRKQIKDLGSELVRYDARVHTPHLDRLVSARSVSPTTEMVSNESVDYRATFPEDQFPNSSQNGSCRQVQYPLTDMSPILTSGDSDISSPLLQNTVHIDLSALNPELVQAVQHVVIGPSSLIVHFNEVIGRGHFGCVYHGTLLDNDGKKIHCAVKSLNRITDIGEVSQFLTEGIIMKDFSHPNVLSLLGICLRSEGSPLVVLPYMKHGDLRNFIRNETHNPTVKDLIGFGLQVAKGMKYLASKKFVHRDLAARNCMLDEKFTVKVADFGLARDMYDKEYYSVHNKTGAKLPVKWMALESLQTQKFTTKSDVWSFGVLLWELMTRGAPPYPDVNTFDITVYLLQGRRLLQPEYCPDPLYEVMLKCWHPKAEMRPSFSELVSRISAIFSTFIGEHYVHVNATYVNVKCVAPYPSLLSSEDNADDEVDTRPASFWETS
Sequence of Mitogen-activated protein kinase 3 (Homo sapiens) (P27361 whole entry): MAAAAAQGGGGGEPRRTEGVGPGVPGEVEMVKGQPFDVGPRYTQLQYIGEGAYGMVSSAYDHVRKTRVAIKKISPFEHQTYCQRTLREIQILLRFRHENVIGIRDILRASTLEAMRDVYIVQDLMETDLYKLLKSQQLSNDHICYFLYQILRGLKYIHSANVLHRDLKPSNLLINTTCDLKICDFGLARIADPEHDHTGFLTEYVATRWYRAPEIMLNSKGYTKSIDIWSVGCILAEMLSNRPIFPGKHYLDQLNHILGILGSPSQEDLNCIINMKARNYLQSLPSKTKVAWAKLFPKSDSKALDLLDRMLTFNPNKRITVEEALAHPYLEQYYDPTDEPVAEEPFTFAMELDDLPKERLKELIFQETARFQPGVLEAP

On to `O=C(O)CCCc1ccc(-c2nc3cc4ccccc4cc3nc2-c2ccc(CCCC(=O)O)s2)s1`, for which the inhibition in data set [1] is 7%; in data set [2], 18%; in data set [3] it was 13%; in data set [4] it was 12%; in data set [5] it was 37%; in data set [6] it was 33%. In addition, the inhibition in data set [7] was found to be 7%; in [8] it was 6%; in data set [9] it was 9%; in [10], 0%; in [11], 24%; in [12], 43%. Besides, the figures for the inhibition in data set [13], in [14] and in data set [16] were 20%, 35% and 32%, respectively. In data set [15], the lipophilicity (logP) turned out to be 4.77.

In data set [15], `COc1cc2c(c(OC)c1OC)-c1ccc(OC)c(=O)cc1[C@@H](NC(C)=O)CC2` [COLCHICINE] had a logP of 0.92.

`Cn1c(=O)c2[nH]c(-c3ccccc3)nc2n(C)c1=O` [8-PHENYL THEOPHYLLINE] came in with a logP in [15] of 2.05.

For the compound `Cn1c(=O)c2[nH]cnc2n(C)c1=O` [THEOPHYLLINE], the logP in [15] was -0.05.

In [15], `c1ccc(-c2nnn[nH]2)cc1` showed a lipophilicity (logP) of 1.42.

Regarding `O=C(O)Cc1csc(-c2nc3cc4ccccc4cc3nc2-c2cc(CC(=O)O)cs2)c1`, the inhibition was -5% in data set [1]; 10% in data set [2]; 22% in data set [3]; 40% in [4]; 22% in data set [5]; 17% in [6]. The inhibition in [7] came to 21%; in data set [8], 54%; in data set [17], 17%; in [9] it was 8%; in data set [10], 18%; in data set [11], 18%. Moreover, the inhibition is 37% in data set [12]; 27% in data set [13]; 29% in data set [14]; -7% in data set [18]; 54% in data set [16]. Also, the logP in [15] was found to be 4.11.

For `COC(=O)CCc1ccc(-c2nc3cc4ccccc4cc3nc2-c2ccc(CCC(=O)OC)s2)s1`, the inhibition is -10% in data set [19]; 12% in data set [1]; 11% in data set [2]; 7% in [3]; 18% in [4]; 13% in data set [5]. In addition, the inhibition in data set [6] was 12%; in data set [7] it was 39%; in [8], 13%; in data set [17], 14%; in data set [9], 5%; in data set [10] it was 5%. For the same compound, the inhibition in data set [11] is 14%; in [12], 31%; in data set [13], 31%; in data set [14], 19%; in data set [18], -8%; in data set [16], 32%. Besides, in data set [15], the log partition coefficient (logP) was 5.

In turn, `c1ccc2[nH]cnc2c1` [BENZIMIDAZOLE] yielded a log partition coefficient (logP) in [15] of 1.55.

In turn, `COC(=O)Cc1ccc(-c2nc3cc4ccccc4cc3nc2-c2ccc(CC(=O)OC)s2)s1` registered a log partition coefficient (logP) in [15] of 4.95.

On to `CCCCC(=O)c1ccccc1` [VALEROPHENONE], for which the logP in data set [15] was determined as 3.26.

In turn, `CCC(=O)c1ccccc1` [PROPIOPHENONE] came in with a lipophilicity (logP) in data set [15] of 2.2.

Consider `CCCC(=O)c1ccccc1` [BUTYROPHENONE], for which, in data set [15], the log partition coefficient (logP) is 2.73.

With `O=C(O)C1COc2cc3nc(-c4cccs4)c(-c4cccs4)nc3cc2O1` (stereo unspecified), the inhibition is 10% in data set [1]; -1% in data set [2]; 33% in data set [3]; 12% in data set [4]; 5% in data set [5]; 4% in data set [6]. Besides, the inhibition was -2% in data set [7]; 39% in data set [8]; 4% in data set [17]; -2% in data set [9]; -1% in [10]; 15% in data set [11]. Further, the inhibition in data set [12] is 14%; in data set [13], 14%; in [14], 19%; in data set [18], -6%; in [16], 39%. In addition, the logP in [15] is 4.7.

For `O=C(O)c1ccc(-c2nc3cc4ccccc4cc3nc2-c2ccc(C(=O)O)s2)s1`, the inhibition in data set [1] is 3%; in [2] it was 14%; in data set [3], 51%; in [4], 16%; in [5], 23%; in [6] it was 12%. In addition, the inhibition was -4% in data set [7]; 49% in [8]; 12% in [17]; 19% in [10]; 7% in data set [11]; 29% in data set [12]. The inhibition in data set [13] was 31%; in data set [14], 20%; in [16], 49%. The compound also displayed a logP in data set [15] of 5.03.
